Common to all, as to assay: normalised viability (% of control), CellTiter-Blue; higher = more viable cells (about 100 = DMSO control)
Details in all cases: incubation time: 72 h
In general terms: Alamar Blue is a resazurin reagent that responds to reducing activity.

In assay [1] the test system is DU-4475. As for the experimental part:
(§1)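 DSRT, CellTiter-Blue viability, 72 h incubation. Signal is normalised to DMSO and benzethonium chloride controls. Value is the normalised response at dose 7.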

Assay [2] relates to CAL-51. The method, then: as §1
The subject of assay [3] is MDA-MB-453. The method, then: as §1
Assay [4] relates to HDQ-P1. As for the experimental part:
as §1

In assay [5] the test system is CAL-148. As for the experimental part:
as §1

Assay [6] deals with CAL-85-1. As for the experimental part:
as §1

For assay [7], the system named is DU-4475. The method, then: (§2)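 DSRT, CellTiter-Blue viability, 72 h incubation. Signal is normalised to DMSO and benzethonium chloride controls. Value is the normalised response at dose 8.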
This is another data set of the same source.

In assay [8] the test system is CAL-51. As for the experimental part:
as §2
This is another data set of the same source.

For assay [9], the system named is MDA-MB-453. The method, then: as §2
The source holds these as a separate data set.

Assay [10] has as its system HDQ-P1. The method, then: as §2
The source holds these as a separate data set.

For assay [11], the system named is CAL-148. The method, then: as §2
This is another data set of the same source.

Assay [12] relates to CAL-85-1. The method, then:
as §2
This is another data set of the same source.

The text below walks through data of the supplement of paper PMC4862054.

Molecules are shown by their SMILES. Where “and” joins values, the source holds several entries; their conditions need not be identical. Identical values can stand only once.

For `Cc1cc(Nc2cc(CN3CCOCC3)c3nc(C)c(Cc4ccc(Cl)cc4F)n3n2)n[nH]1` (1000 nM), the normalised viability in [1] came to 94%; in assay [2] it was 85.8%; in assay [3], 53.3%; in assay [4], 72.5%; in assay [5], 94.6%; in assay [6], 86.5%.
Regarding `Cc1cc(Nc2cc(CN3CCOCC3)c3nc(C)c(Cc4ccc(Cl)cc4F)n3n2)n[nH]1` (3000 nM), the normalised viability came out at 52.4% in [7]; 38.2% in assay [8]; 60.7% in [9]; 35.5% in assay [10]; 76.1% in assay [11]; 59.4% in [12].
With `N#Cc1ccc(COC[C@H]2O[C@@H](n3c(NCc4ccc(Cl)c(Cl)c4)nc4c(N)ncnc43)[C@H](O)[C@@H]2O)cc1` (3000 nM), the normalised viability in assay [7] was 82.7%; in assay [8], 99.3%; in assay [9], 96%; in assay [10], 89.5%; in assay [11], 87.7%; in assay [12], 93%.
With `COc1cc(OC2CCN(C)CC2)ccc1Nc1ncc2c(n1)n(C1CCCC1)c(=O)n2C` [AZ 3146] (3000 nM), the normalised viability in [7] came to 89%; in [8], 28%; in assay [9] it was 69.6%; in assay [10] it was 72.4%; in assay [11], 43.5%; in assay [12], 84.5%.
Take `CN(C)c1nc(N(C)C)nc(N(C)C)n1` [Altretamine] (3000 nM): the normalised viability in assay [7] is 115%; in assay [8], 114%; in assay [9] it was 108%; in assay [10], 99.9%; in [11], 97%; in [12], 97.8%.
For the compound `COC(=O)c1ccc2c(c1)NC(=O)/C2=C(\Nc1ccc(N(C)C(=O)CN2CCN(C)CC2)cc1)c1ccccc1` [BIBF 1120] (1000 nM), the normalised viability in assay [1] worked out at 96.8%; in [2], 68.2%; in [3], 78.2%; in assay [4], 119%; in [5] it was 99%; in assay [6], 111%.
Consider `COC(=O)c1ccc2c(c1)NC(=O)/C2=C(\Nc1ccc(N(C)C(=O)CN2CCN(C)CC2)cc1)c1ccccc1` [BIBF 1120] (3000 nM), for which the normalised viability in [7] turned out to be 97.1%; in assay [8] it was 62.7%; in assay [9], 59.8%; in [10] it was 91%; in [11], 94.8%; in assay [12], 91.1%.
As for `Nc1cc(C(F)(F)F)c(-c2cc(N3CCOCC3)nc(N3CCOCC3)n2)cn1` [BKM-120] (1000 nM), the normalised viability in assay [1] was found to be 92.9%; in assay [2] it was 56.9%; in assay [3], 32.4%; in assay [4], 63.2%; in [5] it was 83.7%; in assay [6] it was 58.3%.
For the compound `Nc1cc(C(F)(F)F)c(-c2cc(N3CCOCC3)nc(N3CCOCC3)n2)cn1` [BKM-120] (3000 nM), the normalised viability in assay [7] worked out at 38%; in [8] it was 10.4%; in assay [9], 11.9%; in assay [10], 27.7%; in assay [11] it was 18.8%; in assay [12], 27.3%.
On to `O=C(/C=C/c1cccc(S(=O)(=O)Nc2ccccc2)c1)NO` [Belinostat] (3000 nM), for which the normalised viability in assay [7] was 1.84%; in assay [8] it was 9.77%; in assay [9] it was 2.18%; in [10], 39.1%; in assay [11], 3.16%; in assay [12] it was 16.4%.
Regarding `O=P1(N(CCCl)CCCl)NCCCO1` (centres undefined) [Cyclophosphamide] (12000 nM), the normalised viability in assay [7] came out at 104%; in assay [8], 105%; in [9], 109%; in assay [10], 110%; in assay [11], 97.2%; in assay [12], 93.7%.
Consider `C=C1C[C@@H]2[C@H](CC[C@]3(C)C(=O)CC[C@@H]23)[C@@]2(C)C=CC(=O)C=C12` [Exemestane] (3000 nM), for which the normalised viability in [7] turned out to be 106%; in assay [8] it was 110%; in assay [9], 79%; in [10] it was 92.4%; in assay [11], 104%; in assay [12] it was 90.7%.
`COc1cc2ncnc(Nc3ccc(F)c(Cl)c3)c2cc1OCCCN1CCOCC1` [Gefitinib] (3000 nM): the normalised viability in assay [7] is 101%; in assay [8], 96.4% and 96.1%; in [9] it was 79.3% and 69.5%; in assay [10], 77% and 86.2%; in assay [11] it was 76% and 67.1%; in assay [12], 55.9% and 54%.
Turning to `O=C(Nc1ccncc1)C(=O)c1cn(Cc2ccc(Cl)cc2)c2ccccc12` [Indibulin] (3000 nM), the normalised viability in [7] is 22.6%; in [8], 25.5%; in assay [9], 39.5%; in assay [10] it was 54.7%; in assay [11] it was 83.8%; in assay [12] it was 39.7%.
`NC(=O)c1ccc(I)c([N+](=O)[O-])c1` [Iniparib] (3000 nM): the normalised viability in assay [7] was found to be 88.1%; in [8], 93.8%; in assay [9], 85.1%; in [10] it was 93.9%; in [11] it was 97%; in [12], 84.5%.
As for `CCc1c2c(nc3ccc(OC(=O)N4CCC(N5CCCCC5)CC4)cc13)-c1cc3c(c(=O)n1C2)COC(=O)[C@]3(O)CC` [Irinotecan] (3000 nM), the normalised viability in [7] was 44.3% and 57.5%; in assay [8] it was 49.9% and 64.2%; in assay [9], 73.3% and 90.7%; in [11], 28% and 42%; in assay [12], 63.7% and 73.4%.
Take `Oc1ccc2c(c1)CC[C@H](c1ccccc1)[C@@H]2c1ccc(OCCN2CCCC2)cc1` [Lasofoxifene] (300 nM): the normalised viability in assay [7] was found to be 96.4%; in assay [8], 109%; in assay [9], 104%; in [10], 102%; in assay [11], 98.2%; in assay [12], 96.8%.
As to `Cc1ccc(NC(=O)c2ccc(CN3CCN(C)CC3)cc2)cc1Nc1nc(-c2cccnc2)cs1` [Masitinib] (3000 nM), the normalised viability in assay [7] amounted to 125%; in [8], 115%; in assay [9], 65.5%; in assay [10], 103%; in [11], 74.8%; in assay [12], 94%.
`O=C(Nc1cccnc1)N1CCC(Cc2cccc(Oc3ccc(C(F)(F)F)cn3)c2)CC1` [PF-3845] (3000 nM): the normalised viability in [7] was 93.9%; in assay [8], 93.2%; in assay [9], 62.1%; in assay [10], 122%; in [11], 97.9%; in assay [12], 93.9%.
Consider `Cc1[nH]c2ccccc2c1CCNCc1ccc(/C=C/C(=O)NO)cc1` [Panobinostat] (300 nM), for which the normalised viability in [7] was 6.86%; in assay [8], 5.46%; in [9], 1.93%; in assay [10], 23.1%; in assay [11], 1.12%; in assay [12], 7.2%.
